Here are results for 56 molecules from patent US7166598B2, “Piperazine derivatives” (Astellas Pharma Inc., priority 1998, dated 2007).

What is called melting point is the temperature of the solid-liquid transition.

`C[C@@H]1CN(CCN2CCN(C(=O)c3cc(C(F)(F)F)cc(C(F)(F)F)c3)[C@H](Cc3ccc(Cl)c(O)c3)C2)C[C@H](C)O1.Cl.Cl` showed a melting point of 172 to 175 °C.

`CSc1cc(C(=O)N2CCN(CCN3CCc4ncccc4C3)C[C@H]2Cc2ccc(C(F)(F)F)cc2)cc(C(F)(F)F)c1.Cl.Cl` showed a melting point of 190 to 210 °C.

On to `Cl.Cl.O=C(c1cc(C(F)(F)F)cc(C(F)(F)F)c1)N1CCN(CCCc2cccnc2)C[C@H]1Cc1ccc(F)c(O)c1`, for which the melting point is 80 to 95 °C.

`Cl.Cl.O=C(c1cc(C(F)(F)F)cc(C(F)(F)F)c1)N1CCN(Cc2cccnc2)C[C@H]1Cc1ccc(F)c(O)c1` gave a melting point of 50 to 60 °C.

On to `Cc1ccc(C[C@@H]2CN(C/C=C\c3cccnc3)CCN2C(=O)c2cc(C(F)(F)F)cc(C(F)(F)F)c2)cc1O.Cl.Cl`, for which the melting point was in the range of 85 to 130 °C.

For the molecule `COc1cc(C(=O)N2CCN(CCN3CCc4ncccc4C3)C[C@H]2Cc2ccc(C)c(O)c2)cc(C(F)(F)F)c1.Cl.Cl.Cl`, the melting point was in the range of 192 to 208 °C.

On to `Cl.Cl.O=C(c1cc(C(F)(F)F)cc(C(F)(F)F)c1)N1CCN(Cc2c[nH]c3ncccc23)C[C@H]1Cc1ccc(Cl)c(O)c1`, for which the melting point was in the range of 197 to 200 °C.

`COC[C@@H]1CN(CCN2CCN(C(=O)c3cc(C(F)(F)F)cc(C(F)(F)F)c3)[C@H](Cc3ccc(F)cc3)C2)CCO1.Cl.Cl` registered a melting point of 129 to 133 °C.

In turn, `CSc1cc(C(=O)N2CCN(CCN3CCc4ncccc4C3)C[C@H]2Cc2ccc(Cl)cc2)cc(C(F)(F)F)c1.Cl.Cl.Cl` registered a melting point of 182 to 195 °C.

The molecule `COC[C@@H]1CN(CCN2CCN(C(=O)c3cc(F)cc(C(F)(F)F)c3)[C@H](Cc3ccc(Cl)c(O)c3)C2)CCO1.Cl.Cl` came in with a melting point of 176 to 178 °C.

In turn, `COC[C@@H]1CN(CCN2CCN(C(=O)c3cc(C(F)(F)F)cc(C(F)(F)F)c3)[C@H](Cc3ccc(Cl)cc3)C2)CCO1.Cl.Cl` yielded a melting point of 90 to 120 °C.

`CC1(C)COCCN1CC#CCN1CCN(C(=O)c2cc(C(F)(F)F)cc(C(F)(F)F)c2)[C@H](Cc2ccc(Cl)cc2)C1.Cl.Cl`: the melting point lay within 120 to 150 °C.

In turn, `COC[C@@H]1CN(CCN2CCN(C(=O)c3cc(C(F)(F)F)cc(C(F)(F)F)c3)[C@H](Cc3ccc(C(F)(F)F)cc3)C2)C[C@H](COC)O1.Cl.Cl` came in with a melting point of 130 to 138 °C.

`Cc1ccc(C[C@@H]2CN(Cc3ccc4ncccc4c3)CCN2C(=O)c2cc(C(F)(F)F)cc(C(F)(F)F)c2)cc1O.Cl.Cl` yielded a melting point of 170 to 200 °C.

`Cc1ccc(C[C@@H]2CN(Cc3cccnc3)CCN2C(=O)c2cc(C(F)(F)F)cc(C(F)(F)F)c2)cc1O.Cl.Cl` registered a melting point of 110 to 130 °C.

Molecule `Cl.Cl.O=C(c1cc(C(F)(F)F)cc(C(F)(F)F)c1)N1CCN(CCCc2cccnc2)C[C@H]1Cc1ccc(F)c(F)c1` registered a melting point of 215 to 220 °C.

`Cc1ccc(C[C@@H]2CN(CCN3[C@@H](C)COC[C@@H]3C)CCN2C(=O)c2cc(C(F)(F)F)cc(C(F)(F)F)c2)cc1O.Cl.Cl` showed a melting point of 240 to 250 °C.

The molecule `COC[C@@H]1CN(CCCN2CCN(C(=O)c3cc(C(F)(F)F)cc(C(F)(F)F)c3)[C@H](Cc3ccc(C)c(O)c3)C2)CCO1.Cl.Cl` came in with a melting point of 150 to 170 °C.

Regarding `CNc1cc(C(=O)N2CCN(CCN3CCc4ncccc4C3)C[C@H]2Cc2ccc(Cl)cc2)cc(C(F)(F)F)c1.Cl.Cl.Cl`, the melting point lay within 199 to 245 °C.

Consider `COc1cc(C(=O)N2CCN(Cc3cnn(C)c3)C[C@H]2Cc2ccc(Cl)cc2)cc(C(F)(F)F)c1.Cl`, for which the melting point was 70 to 100 °C.

The molecule `COC[C@@H]1CN(CCN2CCN(C(=O)c3cc(C(F)(F)F)cc(S(=O)(=O)N4CCOCC4)c3)[C@H](Cc3ccc(C)c(O)c3)C2)CCO1.Cl.Cl` had a melting point of 130 to 175 °C.

As for `COc1cc(C(=O)N2CCN(CCN3CCC(F)(F)CC3)C[C@H]2Cc2ccc3ccccc3c2)cc(C(F)(F)F)c1.Cl.Cl`, the melting point was in the range of 243 to 260 °C.

In the case of `COc1cc(C(=O)N2CCN(Cc3cccnc3)C[C@H]2Cc2c[nH]c3ccccc23)cc(C(F)(F)F)c1.Cl.Cl`, the melting point was in the range of 190 to 200 °C.

For the molecule `CS(=O)(=O)c1cc(C(=O)N2CCN(CCN3CCc4ncccc4C3)C[C@H]2Cc2ccc(Cl)cc2)cc(C(F)(F)F)c1.Cl.Cl.Cl`, the melting point was in the range of 198 to 213 °C.

Consider `Cc1cc(C(=O)N2CCN(CCN3C[C@@H](C)O[C@@H](C)C3)C[C@H]2Cc2ccc(Cl)cc2)cc(C(F)(F)F)c1.Cl.Cl`, for which the melting point was in the range of 82.3 to 88.2 °C.

With `COC[C@@H]1CN(CCN2CCN(C(=O)c3cc(C(F)(F)F)cc(S(C)(=O)=O)c3)[C@H](Cc3ccc(C)c(O)c3)C2)CCO1.Cl.Cl`, the melting point is 173.5 to 178 °C.

As for `Cl.Cl.Cl.O=C(c1cc(C(F)(F)F)cc(C(F)(F)F)c1)N1CCN(CCN2CCc3ncccc3C2)C[C@H]1Cc1ccc(F)c(O)c1`, the melting point lay within 240 to 241 °C.

Molecule `COc1cc(C(=O)N2CCN(CC#CCN3CCOCC3(C)C)C[C@H]2Cc2ccc(F)cc2)cc(C(F)(F)F)c1.Cl.Cl` came in with a melting point of 137.5 to 140.7 °C.

Molecule `COc1cc(C[C@@H]2CN(CCN3CCc4ncccc4C3)CCN2C(=O)c2cc(SC)cc(C(F)(F)F)c2)ccc1F.Cl.Cl.Cl` had a melting point of 143.3 to 147.5 °C.

As to `Cl.Cl.Cl.O=C(c1cc(C(F)(F)F)cc(C(F)(F)F)c1)N1CCN(CCN2CCc3ncccc3C2)C[C@H]1Cc1ccc2ccccc2c1`, the melting point lay in the range of 189 to 194 °C.

`COC[C@@H]1CN(CCN2CCN(C(=O)c3cc(C(F)(F)F)cc(C(F)(F)F)c3)[C@H](Cc3ccc(OC)cc3)C2)CCO1.Cl.Cl` gave a melting point of 146 to 149 °C.

`COC[C@H]1CN(CCN2CCN(C(=O)c3cc(C(F)(F)F)cc(C(F)(F)F)c3)[C@H](Cc3ccc(F)c(OC)c3)C2)CCO1.Cl.Cl` showed a melting point of 139 to 148 °C.

As for `COc1cc(C(=O)N2CCN(CCCc3cccnc3)C[C@H]2Cc2ccc(Cl)cc2)cc(C(F)(F)F)c1.Cl.Cl`, the melting point is 60 to 100 °C.

Molecule `Cc1ccc(CC2CN(C/C=C/c3cccnc3)CCN2C(=O)c2cc(C(F)(F)F)cc(C(F)(F)F)c2)cc1O.Cl.Cl` (centres unmarked) had a melting point of 60 to 80 °C.

Regarding `COc1cc(C(=O)N2CCN(CC#CCN3CCOCC3(C)C)C[C@H]2Cc2ccc(Cl)cc2)cc(C(F)(F)F)c1.Cl.Cl`, the melting point was in the range of 110 to 140 °C.

With `CSc1cc(C(=O)N2CCN(CCN3C[C@@H](C)O[C@@H](C)C3)C[C@H]2Cc2ccc(Cl)cc2)cc(C(F)(F)F)c1.Cl.Cl`, the melting point was in the range of 138.4 to 142.5 °C.

Molecule `Cl.Cl.O=C(c1cc(C(F)(F)F)cc(C(F)(F)F)c1)N1CCN(CCN2CCC[C@H]2CO)C[C@H]1Cc1ccc(C(F)(F)F)cc1` gave a melting point of 221 to 224 °C.

The molecule `COc1cc(C[C@@H]2CN(CCN3CCc4ncccc4C3)CCN2C(=O)c2cc(C(F)(F)F)cc(C(F)(F)F)c2)ccc1C(F)(F)F.Cl.Cl.Cl` returned a melting point of 195 to 200 °C.

For the molecule `COC[C@@H]1CN(CCN2CCN(C(=O)c3cc(C(F)(F)F)cc(S(=O)(=O)C4CCCC4)c3)[C@H](Cc3ccc(Cl)cc3)C2)CCO1.Cl.Cl`, the melting point is more than 230 °C.

Consider `O=C(c1cc(C(F)(F)F)cc(C(F)(F)F)c1)N1CCN(CC#Cc2cccnc2)C[C@H]1Cc1ccc(C(F)(F)F)cc1` [Example 9-(53), (2R)-1-[3,5-Bis(trifluoromethyl)benzoyl]-4-[3-(3-pyridyl)-2-propynyl]-2-[4-(trifluoromethyl)benzyl]-piperazine], for which the melting point was 142 to 143 °C.

`Cl.Cl.Cl.O=C(c1cc(-n2cccc2)cc(C(F)(F)F)c1)N1CCN(CCN2CCc3ncccc3C2)C[C@H]1Cc1ccc(Cl)cc1` gave a melting point of 184 to 191 °C.

With `Cl.Cl.Cl.O=C(c1cc(C(F)(F)F)cc(C(F)(F)F)c1)N1CCN(CCN2CCc3ncccc3C2)C[C@H]1Cc1ccc(Cl)cc1`, the melting point was 172 to 203 °C (dec.).

Take `COC[C@@H]1CN(CCN2CCN(C(=O)c3cc(F)cc(C(F)(F)F)c3)[C@H](Cc3ccc(Cl)cc3)C2)CCO1.Cl.Cl`: the melting point was in the range of 199 to 204 °C.

In turn, `CO[C@H]1CN(CCN2CCN(C(=O)c3cc(C(F)(F)F)cc(C(F)(F)F)c3)[C@H](Cc3ccc(Cl)c(O)c3)C2)C[C@@H]1OC.Cl.Cl` came in with a melting point of 150 to 155 °C.

`Cl.Cl.O=C(c1cc(C(F)(F)F)cc(C(F)(F)F)c1)N1CCN(Cc2cccnc2)C[C@H]1Cc1ccc(F)c(F)c1` came in with a melting point of 203 to 208 °C.

On to `COc1cc(C(=O)N2CCN(CCN3C[C@@H](C)O[C@@H](C)C3)C[C@H]2Cc2ccc(C(F)(F)F)c(OC)c2)cc(C(F)(F)F)c1.Cl.Cl`, for which the melting point lay in the range of 125 to 135 °C.

`COc1cc(C(=O)N2CCN(CCCc3cccnc3)C[C@H]2Cc2ccc(Cl)c(O)c2)cc(C(F)(F)F)c1.Cl.Cl` returned a melting point of 90 to 110 °C.

For `COC[C@@H]1CN(CCN2CCN(C(=O)c3cc(Cl)cc(C(F)(F)F)c3)[C@H](Cc3ccc(F)c(OC)c3)C2)CCO1.Cl.Cl`, the melting point lay in the range of 139 to 142 °C.

In the case of `COc1cc(C[C@@H]2CN(CCN3C[C@@H](C)O[C@@H](C)C3)CCN2C(=O)c2cc(C(F)(F)F)cc(C(F)(F)F)c2)ccc1C(F)(F)F.Cl.Cl`, the melting point fell in the range of 160 to 170 °C.

Molecule `Cc1ccc(C[C@@H]2CN(CCN3CCc4sccc4C3)CCN2C(=O)c2cc(C(F)(F)F)cc(C(F)(F)F)c2)cc1O.Cl.Cl` registered a melting point of 245 to 265 °C.

`Cc1ccc(C[C@@H]2CN(Cc3cnn(CCO)c3)CCN2C(=O)c2cc(C(F)(F)F)cc(C(F)(F)F)c2)cc1O.Cl` registered a melting point of 140 to 156 °C.

`COC[C@@H]1CN(CCN2CCN(C(=O)c3cc(C(F)(F)F)cc(C(F)(F)F)c3)[C@H](Cc3ccc(F)c(C)c3)C2)CCO1.Cl.Cl` had a melting point of 151 to 156 °C.

With `Cl.Cl.Cl.O=C(c1cc([N+](=O)[O-])cc(C(F)(F)F)c1)N1CCN(CCN2CCc3ncccc3C2)C[C@H]1Cc1ccc(Cl)cc1`, the melting point lay within 221 to 228 °C.

The molecule `Cl.Cl.O=C(c1cc(C(F)(F)F)cc(C(F)(F)F)c1)N1CCN(Cc2cccnc2)C[C@H]1Cc1ccc2ccccc2c1` came in with a melting point of 198 to 208 °C.

`Cl.Cn1cc(CN2CCN(C(=O)c3cc(C(F)(F)F)cc(C(F)(F)F)c3)[C@H](Cc3ccc(C(F)(F)F)cc3)C2)cn1` gave a melting point of 200 to 229 °C.

With `COc1cc(C[C@@H]2CN(CCN3C[C@@H](C)O[C@@H](C)C3)CCN2C(=O)c2cc(SC)cc(C(F)(F)F)c2)ccc1F.Cl.Cl`, the melting point was in the range of 62.5 to 82.4 °C.
